In patent publication US20070160691A1, “Pharmaceutical composition for treating and preventing cancer comprising cinnamoni cortex extract and zizyphi fructus extract” (KOREA RESEARCH INSTITUTE OF BIOSCIENCE AND BIOTECH, priority 2003, published 2007):

How the values were obtained:
[1] = system: MDA-MB-231 breast cancer cells; assay: DNA fragmentation (apoptosis induction), agarose gel electrophoresis; assay type: cell-based; settings: MDA-MB-231 cells, 10 μM and 30 μM HCA, 48 hrs, compared to DMSO; FIG. 1
Experimental: (§1) MDA-MB-231 breast cancer cells and SW620 colon cancer cells were seeded onto 100-mm culture dishes at densities of 1×10^6 and 2×10^6 cells, respectively. After 18 hrs, the cells were treated with 10 μM and 30 μM of 2′-hydroxycinnamaldehyde(HCA) and further cultured for 48 hrs.
(§2) Then, to analyze DNA cleavage by the HCA treatment, the cells were lysed using RIPA buffer (50 mM Tris-HCl, pH 7.4, 150 mM NaCl, 5 mM EDTA, 1% NP-40, 1 mM sodium vanadate, 0.5% sodium deoxycholate, and 0.05% sodium deoxysulfate). The cell lysates were centrifuged at 13,000 rpm. The supernatants were subjected to phenol extraction to remove proteins, and the nucleic acid layers were recovered. Potassium acetate was added to each nucleic acid layer in a final concentration of 50 mM, and an equal volume of isopropyl alcohol was added thereto to precipitate nucleic acids. The precipitated nucleic acids were washed with 80% ethanol and dried. The dried nucleic acids were dissolved in 30 μl of TE buffer, and treated with Dnase-free RNase at 37° C. for 1 hr to remove RNA.
(§3) The resulting DNA samples were electrophoresed on a 1.5% agarose gel to investigate DNA fragmentation by HCA.

SW620 colon cancer cells = assay: as above; assay type: cell-based, human; settings: 10 μM and 30 μM HCA, 48 hrs, compared to DMSO, FIG. 1
Experimental: as §1, §2, §3

[2] = system: PARP (poly(ADP-ribose) polymerase) in MDA-MB-231 breast cancer cells; assay: PARP cleavage by Western blotting; assay type: cell-based; settings: MDA-MB-231 cells, 10 μM and 30 μM HCA, 48 hrs, compared to DMSO; FIG. 2
Experimental: (§4) MDA-MB-231 breast cancer cells and SW620 colon cancer cells were seeded onto 100-mm culture dishes at densities of 1×10^6 and 2×10^6 cells, respectively. After 18 hrs, the cells were treated with 10 μM and 30 μM of HCA and further cultured for 48 hrs.
(§5) Then, to analyze PARP (poly(ADP-ribose) polymerase) cleavage by the HCA treatment, the cells were lysed using RIPA buffer (50 mM Tris-HCl, pH 7.4, 150 mM NaCl, 5 mM EDTA, 1% NP-40, 1 mM sodium vanadate, 0.5% sodium deoxycholate, and 0.05% sodium deoxysulfate). The cell lysates were centrifuged at 13,000 rpm and the supernatants were recovered. In the supernatants, protein concentrations were determined using a Bradford reagent (Bio-Rad Protein Assay, USA). Protein samples of 30 μg were separated on a 7.5% SDS-PAGE (SDS-polyacrylamide gel electrophoresis) gel. Proteins were then electro-transferred onto a PVDF membrane. The blot was blocked using 5% skim milk in TBST (50 mM Tris-HCl, pH 7.6, 150 mM NaCl, 0.1% Tween 20). Intracellular PARP was detected using a PARP-specific antibody (Cell signaling Technology, USA), a HRP (horse radish peroxidase)-conjugated secondary antibody, and a chemiluminescence POD reagent (Roche, Germany).

[3] = system: PARP (poly(ADP-ribose) polymerase) in SW620 colon cancer cells; assay: PARP cleavage by Western blotting; assay type: cell-based, human; settings: 10 μM and 30 μM HCA, 48 hrs, compared to DMSO, FIG. 2
Experimental: as §4, §5

[4] = system: MDA-MB-231 breast cancer cells; assay: Cancer cell migration assay in Boyden chamber; assay type: cell-based; settings: 6 hrs, FIG. 3
Experimental: Cultured MDA-MB-231 breast cancer cells were detached from culture dishes using a trypsin/EDTA solution (Gifco, USA), neutralized with trypsin inhibitor (0.5 mg/ml, Sigma, USA), and washed twice with culture medium. The cells were then counted using a hematocytometer. Cell migration was assayed using a Boyden chamber. HCA was added to a lower compartment of the Boyden chamber through holes with concentrations of 0 μM, 1 μM, 5 μM and 10 μM. After the lower compartment of the Boyden chamber was covered with a polycarbonate membrane (8 μm pore, Neuro Probe, Inc, USA), an upper compartment of the Boyden chamber was assembled with the lower compartment, and […] MDA-MB-231 cells were inoculated in the upper compartment through holes. After the Boyden chamber was incubated in an incubator for 6 hrs, the membrane was immersed in methanol to fix the cells. Then, the membrane was air-dried, stained with a 10% Girkmsa staining solution (Sigma, USA)for 1 hr, and destained with water for 10 sec. Herein, after non-migratedcells (an upper side of the membrane) were removed using a swab, migrated cells (a lower side of the membrane) were counted under a microscope.

## O=C/C=C/c1ccccc1O [HCA, 2′-hydroxycinnamaldehyde]
[1]
  DNA fragmentation by HCA: fragmentation of chromosonal DNA into uniform DNA fragments
SW620 colon cancer cells
  DNA fragmentation by HCA: fragmentation of chromosonal DNA into uniform DNA fragments
[2]
  PARP cleavage: a decrease in normal full-length PARP (116 kDa) and an increase in cleaved PARP (89 kDa)
[3]
  PARP cleavage: a decrease in normal full-length PARP (116 kDa) and an increase in cleaved PARP (89 kDa)
[4]; Homo sapiens, MDA-MB-231, at 30 μM
  inhibition at 30 µM: > 50%
[4]; at 5 μM
  inhibition of cell migration: inhibited cell migration
